In ChEMBL document CHEMBL4507265 (2021):

Legend:
[1] = tested on: Tyrosine-protein kinase ABL1 (Homo sapiens), P00519 [F317I]; conditions: Compound concentration 1000.0 nM
[2] = tested on: Tyrosine-protein kinase ABL1 (Homo sapiens), P00519 [F317L]; conditions: Compound concentration 1000.0 nM
[3] = target: Tyrosine-protein kinase ABL2 (Homo sapiens) (UniProt P42684); conditions: Compound concentration 1000.0 nM
[4] = target: 5'-AMP-activated protein kinase catalytic subunit alpha-2 (Homo sapiens) (UniProt P54646); conditions: Compound concentration 1000.0 nM
[5] = target: Aurora kinase C (Homo sapiens) (UniProt Q9UQB9); conditions: Compound concentration 1000.0 nM
[6] = target: Bone morphogenetic protein receptor type-1B (Homo sapiens) (UniProt O00238); conditions: Compound concentration 1000.0 nM
[7] = target: Cyclin-dependent kinase 19 (Homo sapiens) (UniProt Q9BWU1); conditions: Compound concentration 1000.0 nM
[8] = target: Macrophage colony-stimulating factor 1 receptor (Homo sapiens) (UniProt P07333); conditions: Compound concentration 1000.0 nM
[9] = target: Myotonin-protein kinase (Homo sapiens) (UniProt Q09013); conditions: Compound concentration 1000.0 nM
[10] = tested on: Epidermal growth factor receptor (Homo sapiens), P00533 [L861Q]; conditions: Compound concentration 1000.0 nM
[11] = target: Eukaryotic translation initiation factor 2-alpha kinase 1 (Homo sapiens) (UniProt Q9BQI3); conditions: Compound concentration 1000.0 nM
[12] = target: Ephrin type-B receptor 2 (Homo sapiens) (UniProt P29323); conditions: Compound concentration 1000.0 nM
[13] = target: Ephrin type-B receptor 6 (Homo sapiens) (UniProt O15197); conditions: Compound concentration 1000.0 nM
[14] = target: Receptor tyrosine-protein kinase erbB-2 (Homo sapiens) (UniProt P04626); conditions: Compound concentration 1000.0 nM
[15] = tested on: Receptor-type tyrosine-protein kinase FLT3 (Homo sapiens), P36888 [UNDEFINED MUTATION]; conditions: Compound concentration 1000.0 nM
[16] = target: Hormonally up-regulated neu tumor-associated kinase (Homo sapiens) (UniProt P57058); conditions: Compound concentration 1000.0 nM
[17] = tested on: Mast/stem cell growth factor receptor Kit (Homo sapiens), P10721 [A829P]; conditions: Compound concentration 1000.0 nM
[18] = tested on: Mast/stem cell growth factor receptor Kit (Homo sapiens), P10721 [D816H]; conditions: Compound concentration 1000.0 nM
[19] = target: Serine/threonine-protein kinase STK11 (Homo sapiens) (UniProt Q15831); conditions: Compound concentration 1000.0 nM
[20] = target: Mitogen-activated protein kinase kinase kinase kinase 3 (Homo sapiens) (UniProt Q8IVH8); conditions: Compound concentration 1000.0 nM
[21] = tested on: Hepatocyte growth factor receptor (Homo sapiens), P08581 [Y1235D]; conditions: Compound concentration 1000.0 nM
[22] = target: Myosin light chain kinase (Homo sapiens) (UniProt Q32MK0); conditions: Compound concentration 1000.0 nM
[23] = target: Serine/threonine-protein kinase MRCK alpha (Homo sapiens) (UniProt Q5VT25); conditions: Compound concentration 1000.0 nM
[24] = target: Serine/threonine-protein kinase 4 (Homo sapiens) (UniProt Q13043); conditions: Compound concentration 1000.0 nM
[25] = target: Myosin light chain kinase, smooth muscle (Homo sapiens) (UniProt Q15746); conditions: Compound concentration 1000.0 nM
[26] = target: Myosin-IIIa (Homo sapiens) (UniProt Q8NEV4); conditions: Compound concentration 1000.0 nM
[27] = target: Mitogen-activated protein kinase kinase kinase 14 (Homo sapiens) (UniProt Q99558); conditions: Compound concentration 1000.0 nM
[28] = target: Platelet-derived growth factor receptor beta (Homo sapiens) (UniProt P09619); conditions: Compound concentration 1000.0 nM
[29] = target: Cyclin-dependent kinase 2 homolog (Plasmodium falciparum (isolate 3D7)) (UniProt P61075); conditions: Compound concentration 1000.0 nM
[30] = target: cAMP-dependent protein kinase catalytic subunit alpha (Homo sapiens) (UniProt P17612); conditions: Compound concentration 1000.0 nM
[31] = target: Ribosomal protein S6 kinase alpha-3 (Homo sapiens) (UniProt P51812); conditions: Compound concentration 1000.0 nM
[32] = target: Serine/threonine-protein kinase Sgk3 (Homo sapiens) (UniProt Q96BR1); conditions: Compound concentration 1000.0 nM
[33] = target: NUAK family SNF1-like kinase 2 (Homo sapiens) (UniProt Q9H093); conditions: Compound concentration 1000.0 nM
[34] = target: Serine/threonine-protein kinase 36 (Homo sapiens) (UniProt Q9NRP7); conditions: Compound concentration 1000.0 nM
[35] = target: Serine/threonine-protein kinase TAO3 (Homo sapiens) (UniProt Q9H2K8); conditions: Compound concentration 1000.0 nM
[36] = target: TGF-beta receptor type-2 (Homo sapiens) (UniProt P37173); conditions: Compound concentration 1000.0 nM
[37] = target: TRAF2 and NCK-interacting protein kinase (Homo sapiens) (UniProt Q9UKE5); conditions: Compound concentration 1000.0 nM
[38] = target: BDNF/NT-3 growth factors receptor (Homo sapiens) (UniProt Q16620); conditions: Compound concentration 1000.0 nM
[39] = target: Non-receptor tyrosine-protein kinase TYK2 (Homo sapiens) (UniProt P29597); conditions: Compound concentration 1000.0 nM
[40] = target: Tyrosine-protein kinase receptor TYRO3 (Homo sapiens) (UniProt Q06418); conditions: Compound concentration 1000.0 nM
[41] = target: Wee1-like protein kinase (Homo sapiens) (UniProt P30291); conditions: Compound concentration 1000.0 nM
[42] = target: Serine/threonine-protein kinase 32C (Homo sapiens) (UniProt Q86UX6); conditions: Compound concentration 1000.0 nM
[43] = target: 5-hydroxytryptamine receptor 1B (Homo sapiens) (UniProt P28222); conditions: Compound concentration 10.0 uM
[44] = target: 5-hydroxytryptamine receptor 6 (Homo sapiens) (UniProt P50406); conditions: Compound concentration 10.0 uM
[45] = target: Sodium-dependent serotonin transporter (Homo sapiens) (UniProt P31645); conditions: Compound concentration 10.0 uM
Sodium-dependent serotonin transporter (Homo sapiens), sequence (P31645 whole entry, looked up): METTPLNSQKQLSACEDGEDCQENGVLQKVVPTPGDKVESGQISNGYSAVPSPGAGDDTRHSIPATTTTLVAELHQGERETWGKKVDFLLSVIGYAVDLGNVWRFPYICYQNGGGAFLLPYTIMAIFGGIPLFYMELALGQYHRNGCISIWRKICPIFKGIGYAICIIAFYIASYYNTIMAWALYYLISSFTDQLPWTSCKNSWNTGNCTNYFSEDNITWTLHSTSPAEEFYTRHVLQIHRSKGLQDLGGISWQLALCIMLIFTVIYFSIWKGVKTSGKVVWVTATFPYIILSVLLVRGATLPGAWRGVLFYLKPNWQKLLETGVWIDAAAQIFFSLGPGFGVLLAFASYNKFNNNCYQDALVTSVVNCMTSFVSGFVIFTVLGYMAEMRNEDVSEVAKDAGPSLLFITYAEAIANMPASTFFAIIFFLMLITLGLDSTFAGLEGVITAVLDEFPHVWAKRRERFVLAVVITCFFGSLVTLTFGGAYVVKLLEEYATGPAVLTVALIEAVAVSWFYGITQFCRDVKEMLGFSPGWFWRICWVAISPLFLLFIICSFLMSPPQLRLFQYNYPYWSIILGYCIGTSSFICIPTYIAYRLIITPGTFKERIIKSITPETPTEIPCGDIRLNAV

Myotonin-protein kinase (Homo sapiens), sequence (Q09013 whole entry): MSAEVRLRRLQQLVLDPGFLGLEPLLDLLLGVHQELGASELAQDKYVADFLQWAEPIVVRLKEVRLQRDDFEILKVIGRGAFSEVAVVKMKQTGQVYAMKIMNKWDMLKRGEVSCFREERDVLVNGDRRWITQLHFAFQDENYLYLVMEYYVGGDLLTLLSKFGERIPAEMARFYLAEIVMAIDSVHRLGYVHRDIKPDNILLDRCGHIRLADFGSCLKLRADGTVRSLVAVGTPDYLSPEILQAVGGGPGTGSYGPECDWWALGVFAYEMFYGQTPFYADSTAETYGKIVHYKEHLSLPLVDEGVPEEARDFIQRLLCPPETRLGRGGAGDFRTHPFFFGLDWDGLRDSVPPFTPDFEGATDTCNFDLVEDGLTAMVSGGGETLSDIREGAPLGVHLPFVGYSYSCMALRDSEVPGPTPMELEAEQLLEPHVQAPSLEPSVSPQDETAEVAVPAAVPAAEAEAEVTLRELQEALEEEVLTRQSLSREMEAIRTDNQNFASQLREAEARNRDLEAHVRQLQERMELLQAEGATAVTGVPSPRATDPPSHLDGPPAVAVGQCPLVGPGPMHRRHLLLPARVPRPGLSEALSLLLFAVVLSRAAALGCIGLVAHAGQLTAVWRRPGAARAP
Non-receptor tyrosine-protein kinase TYK2 (Homo sapiens), sequence (P29597 whole entry): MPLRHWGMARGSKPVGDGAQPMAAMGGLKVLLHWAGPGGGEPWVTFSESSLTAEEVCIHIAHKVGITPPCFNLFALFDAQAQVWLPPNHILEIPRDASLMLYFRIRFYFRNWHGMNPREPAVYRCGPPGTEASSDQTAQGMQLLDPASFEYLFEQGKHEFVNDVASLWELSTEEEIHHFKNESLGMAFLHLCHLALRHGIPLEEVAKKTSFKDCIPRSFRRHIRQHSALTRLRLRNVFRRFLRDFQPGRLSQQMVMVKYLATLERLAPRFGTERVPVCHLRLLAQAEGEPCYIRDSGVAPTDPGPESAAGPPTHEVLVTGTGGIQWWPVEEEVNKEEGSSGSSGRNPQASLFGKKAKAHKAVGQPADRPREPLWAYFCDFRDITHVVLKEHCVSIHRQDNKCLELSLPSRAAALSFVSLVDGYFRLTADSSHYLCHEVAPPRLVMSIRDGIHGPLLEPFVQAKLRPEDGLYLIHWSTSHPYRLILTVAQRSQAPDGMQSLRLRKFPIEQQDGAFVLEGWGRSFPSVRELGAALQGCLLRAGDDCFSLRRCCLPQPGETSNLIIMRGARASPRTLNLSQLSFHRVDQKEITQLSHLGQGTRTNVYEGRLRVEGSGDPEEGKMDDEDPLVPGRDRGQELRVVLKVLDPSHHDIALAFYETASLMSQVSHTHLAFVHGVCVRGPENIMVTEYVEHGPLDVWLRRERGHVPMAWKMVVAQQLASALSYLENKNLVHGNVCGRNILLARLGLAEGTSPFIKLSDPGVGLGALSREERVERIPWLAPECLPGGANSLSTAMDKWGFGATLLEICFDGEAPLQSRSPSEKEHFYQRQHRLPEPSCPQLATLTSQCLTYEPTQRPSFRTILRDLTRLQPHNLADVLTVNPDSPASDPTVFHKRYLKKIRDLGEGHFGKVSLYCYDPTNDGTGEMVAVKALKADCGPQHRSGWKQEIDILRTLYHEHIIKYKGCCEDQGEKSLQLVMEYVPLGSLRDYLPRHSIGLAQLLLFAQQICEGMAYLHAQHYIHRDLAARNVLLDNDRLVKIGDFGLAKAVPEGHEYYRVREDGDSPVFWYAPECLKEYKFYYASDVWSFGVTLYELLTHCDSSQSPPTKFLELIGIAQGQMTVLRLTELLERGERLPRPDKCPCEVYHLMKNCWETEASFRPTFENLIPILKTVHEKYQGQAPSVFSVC
Serine/threonine-protein kinase 4 (Homo sapiens), sequence (Q13043 whole entry): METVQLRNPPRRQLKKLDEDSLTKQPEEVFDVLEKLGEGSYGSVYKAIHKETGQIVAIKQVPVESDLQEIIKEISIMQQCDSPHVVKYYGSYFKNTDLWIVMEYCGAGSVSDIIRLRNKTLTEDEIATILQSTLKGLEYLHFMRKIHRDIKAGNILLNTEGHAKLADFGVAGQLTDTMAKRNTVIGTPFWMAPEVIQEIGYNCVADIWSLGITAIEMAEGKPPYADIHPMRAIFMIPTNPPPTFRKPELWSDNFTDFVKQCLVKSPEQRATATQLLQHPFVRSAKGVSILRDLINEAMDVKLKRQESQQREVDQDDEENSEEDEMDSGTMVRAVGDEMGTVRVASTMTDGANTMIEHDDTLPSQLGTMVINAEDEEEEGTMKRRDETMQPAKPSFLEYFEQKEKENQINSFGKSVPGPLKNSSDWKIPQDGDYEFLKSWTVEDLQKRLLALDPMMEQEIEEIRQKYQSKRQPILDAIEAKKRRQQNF
Mitogen-activated protein kinase kinase kinase 14 (Homo sapiens), sequence (Q99558 whole entry, looked up): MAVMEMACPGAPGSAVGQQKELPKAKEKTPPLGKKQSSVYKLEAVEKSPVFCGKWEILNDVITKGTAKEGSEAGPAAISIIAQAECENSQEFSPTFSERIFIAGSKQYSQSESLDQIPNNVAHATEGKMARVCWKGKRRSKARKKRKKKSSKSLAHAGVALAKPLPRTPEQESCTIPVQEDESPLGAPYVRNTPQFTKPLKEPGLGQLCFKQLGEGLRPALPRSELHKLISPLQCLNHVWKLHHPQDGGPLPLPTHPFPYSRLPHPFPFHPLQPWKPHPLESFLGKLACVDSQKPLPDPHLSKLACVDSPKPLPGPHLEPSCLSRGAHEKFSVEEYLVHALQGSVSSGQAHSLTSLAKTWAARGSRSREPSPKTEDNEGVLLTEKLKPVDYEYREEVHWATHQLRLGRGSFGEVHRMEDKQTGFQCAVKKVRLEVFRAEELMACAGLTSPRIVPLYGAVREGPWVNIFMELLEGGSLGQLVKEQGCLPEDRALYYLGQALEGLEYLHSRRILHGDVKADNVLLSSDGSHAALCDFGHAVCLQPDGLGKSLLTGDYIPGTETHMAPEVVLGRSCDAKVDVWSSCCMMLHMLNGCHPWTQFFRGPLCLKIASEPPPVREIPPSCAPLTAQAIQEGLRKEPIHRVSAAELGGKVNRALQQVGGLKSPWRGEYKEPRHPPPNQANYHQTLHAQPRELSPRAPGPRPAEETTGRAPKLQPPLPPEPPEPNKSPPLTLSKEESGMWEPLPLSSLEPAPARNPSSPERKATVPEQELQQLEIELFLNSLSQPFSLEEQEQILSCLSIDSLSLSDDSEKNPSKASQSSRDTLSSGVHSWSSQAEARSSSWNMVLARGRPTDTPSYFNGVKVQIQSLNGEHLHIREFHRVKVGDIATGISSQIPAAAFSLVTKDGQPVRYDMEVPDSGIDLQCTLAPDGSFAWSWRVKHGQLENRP
Receptor-type tyrosine-protein kinase FLT3 (Homo sapiens), P36888 [UNDEFINED MUTATION], sequence (P36888 whole entry, looked up, change not shown): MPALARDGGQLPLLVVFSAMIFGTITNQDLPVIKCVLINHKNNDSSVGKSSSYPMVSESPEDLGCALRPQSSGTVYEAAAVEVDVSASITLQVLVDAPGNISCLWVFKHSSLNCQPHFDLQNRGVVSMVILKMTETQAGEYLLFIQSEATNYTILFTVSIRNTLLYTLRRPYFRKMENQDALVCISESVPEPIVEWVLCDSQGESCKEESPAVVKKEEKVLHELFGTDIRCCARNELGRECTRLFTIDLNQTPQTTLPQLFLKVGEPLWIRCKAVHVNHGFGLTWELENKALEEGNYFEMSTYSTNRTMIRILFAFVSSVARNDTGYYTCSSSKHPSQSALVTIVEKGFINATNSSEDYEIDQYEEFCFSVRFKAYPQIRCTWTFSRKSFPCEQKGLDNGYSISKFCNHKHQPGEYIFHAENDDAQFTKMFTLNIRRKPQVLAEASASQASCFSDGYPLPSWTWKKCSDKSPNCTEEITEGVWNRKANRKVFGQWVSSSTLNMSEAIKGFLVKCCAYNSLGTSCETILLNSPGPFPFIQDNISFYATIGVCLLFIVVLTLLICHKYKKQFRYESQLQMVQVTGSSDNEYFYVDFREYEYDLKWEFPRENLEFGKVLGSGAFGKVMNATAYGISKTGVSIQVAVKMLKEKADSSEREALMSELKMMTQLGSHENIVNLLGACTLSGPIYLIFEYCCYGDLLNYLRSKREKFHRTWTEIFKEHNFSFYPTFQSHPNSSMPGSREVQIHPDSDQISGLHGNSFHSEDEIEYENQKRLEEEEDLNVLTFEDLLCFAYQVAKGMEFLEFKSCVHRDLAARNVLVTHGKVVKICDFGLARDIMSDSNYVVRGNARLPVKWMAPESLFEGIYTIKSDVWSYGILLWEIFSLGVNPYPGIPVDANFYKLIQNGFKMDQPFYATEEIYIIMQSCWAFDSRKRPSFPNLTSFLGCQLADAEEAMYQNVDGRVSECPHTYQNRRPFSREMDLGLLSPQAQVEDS

NS(=O)(=O)c1cc(NC(=O)C2(c3ccccc3Cl)CC2)ccc1Oc1cccc(Cl)c1 [BAY-207]
residual activity [1]: 90% | residual activity [2]: 88% | residual activity [3]: 80% | residual activity [4]: 87% | residual activity [5]: 63% | residual activity [6]: 81% | residual activity [7]: 85% | residual activity [8]: 100% | residual activity [9]: 79% | residual activity [10]: 76% | residual activity [11]: 95% | residual activity [12]: 74% | residual activity [13]: 81% | residual activity [14]: 49% | residual activity [15]: 100% | residual activity [16]: 75% | residual activity [17]: 69% | residual activity [18]: 86% | residual activity [19]: 100% | residual activity [20]: 100% | residual activity [21]: 61% | residual activity [22]: 89% | residual activity [23]: 95% | residual activity [24]: 73% | residual activity [25]: 72% | residual activity [26]: 93% | residual activity [27]: 100% | residual activity [28]: 90% | residual activity [29]: 93% | residual activity [30]: 94% | residual activity [31]: 92% | residual activity [32]: 90% | residual activity [33]: 80% | residual activity [34]: 99% | residual activity [35]: 100% | residual activity [36]: 64% | residual activity [37]: 100% | residual activity [38]: 100% | residual activity [39]: 80% | residual activity [40]: 100% | residual activity [41]: 91% | residual activity [42]: 100% | inhibition [43]: 4.81% | inhibition [44]: -4.73% | inhibition [45]: 8.86%

NS(=O)(=O)c1cc(NC(=O)Cc2ccccc2)ccc1Oc1cccc(Cl)c1 [BAY-1797]
residual activity [1]: 72% | residual activity [2]: 57% | residual activity [3]: 87% | residual activity [4]: 82% | residual activity [5]: 100% | residual activity [6]: 94% | residual activity [7]: 91% | residual activity [8]: 51% | residual activity [9]: 100% | residual activity [10]: 64% | residual activity [11]: 83% | residual activity [12]: 100% | residual activity [13]: 92% | residual activity [14]: 87% | residual activity [15]: 79% | residual activity [16]: 84% | residual activity [17]: 74% | residual activity [18]: 76% | residual activity [19]: 51% | residual activity [20]: 100% | residual activity [21]: 100% | residual activity [22]: 89% | residual activity [23]: 91% | residual activity [24]: 86% | residual activity [25]: 73% | residual activity [26]: 100% | residual activity [27]: 67% | residual activity [28]: 76% | residual activity [29]: 100% | residual activity [30]: 94% | residual activity [31]: 98% | residual activity [32]: 83% | residual activity [33]: 91% | residual activity [34]: 100% | residual activity [35]: 75% | residual activity [36]: 87% | residual activity [37]: 93% | residual activity [38]: 66% | residual activity [39]: 67% | residual activity [40]: 76% | residual activity [41]: 75% | residual activity [42]: 100% | inhibition [43]: -2.93% | inhibition [44]: 17.2% | inhibition [45]: 22.7%
